Like-named read-outs stand apart in the source and are kept apart here.
Experiments:
M4 muscarinic receptor = biological target: T1, M4 muscarinic receptor (Homo sapiens, UniProt P08173); experiment: Functional mobilization of intracellular calcium (FLIPR) in M4-CHO cells; type: cell-based
T1 construct: expressed in transfected cells; host or cells: CHO (M4-CHO)
T1 sequence (P08173 1-479): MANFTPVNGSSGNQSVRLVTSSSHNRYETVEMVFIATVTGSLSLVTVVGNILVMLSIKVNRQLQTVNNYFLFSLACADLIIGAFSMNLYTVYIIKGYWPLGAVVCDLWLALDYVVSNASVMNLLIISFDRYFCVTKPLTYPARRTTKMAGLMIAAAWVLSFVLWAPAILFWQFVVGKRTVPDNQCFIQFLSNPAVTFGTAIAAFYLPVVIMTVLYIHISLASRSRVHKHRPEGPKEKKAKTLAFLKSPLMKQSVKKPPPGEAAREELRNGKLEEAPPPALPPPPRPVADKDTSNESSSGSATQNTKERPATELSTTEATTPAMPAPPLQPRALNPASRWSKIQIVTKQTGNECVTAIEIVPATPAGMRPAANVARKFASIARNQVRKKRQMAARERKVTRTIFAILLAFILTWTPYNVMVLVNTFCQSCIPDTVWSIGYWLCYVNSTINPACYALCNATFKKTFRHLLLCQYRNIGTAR
Procedure, shortened: (§1)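 Two modes: direct compound addition for agonism, or 15 min compound pre-incubation (or co-application) before carbachol at EC80 for inhibition. Calcium signal from Fluo-3 AM or Calcium 3 dye in CHO cells, 1 mM probenecid, pH 7.4, read 60 sec at 488/540 nm; DMSO 0.5% final.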

M1 muscarinic receptor = biological target: T2, M1 muscarinic receptor (Homo sapiens, UniProt P11229); experiment: Functional mobilization of intracellular calcium (FLIPR) in M1-CHO cells; type: cell-based
T2 construct: expressed in transfected cells; host or cells: CHO (M1-CHO)
T2 sequence (P11229 1-460): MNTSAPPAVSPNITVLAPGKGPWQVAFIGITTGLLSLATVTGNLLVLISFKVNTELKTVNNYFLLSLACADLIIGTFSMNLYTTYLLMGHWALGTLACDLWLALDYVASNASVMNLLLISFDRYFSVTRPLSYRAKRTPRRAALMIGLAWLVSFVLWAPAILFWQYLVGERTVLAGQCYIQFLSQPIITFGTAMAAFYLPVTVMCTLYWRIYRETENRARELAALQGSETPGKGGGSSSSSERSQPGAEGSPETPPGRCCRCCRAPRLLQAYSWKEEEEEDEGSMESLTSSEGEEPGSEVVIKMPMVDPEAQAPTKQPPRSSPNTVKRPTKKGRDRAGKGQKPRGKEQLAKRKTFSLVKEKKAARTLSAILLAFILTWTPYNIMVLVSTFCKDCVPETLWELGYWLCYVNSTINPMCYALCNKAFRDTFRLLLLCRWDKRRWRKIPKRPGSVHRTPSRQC
Procedure, shortened: as §1

[1] = M4 receptor, calcium mobilization
[2] = M4 receptor, calcium mobilization, read-out: M4 Efficacy
[3] = M1 receptor, calcium mobilization
[4] = M1 receptor, calcium mobilization, read-out: M1 Efficacy
[5] = M4-CHO cells, calcium mobilization (FLIPR)
[6] = M4-CHO cells, calcium mobilization (FLIPR), read-out: M4 Efficacy
[7] = M1-CHO cells, calcium mobilization (FLIPR)
[8] = M1-CHO cells, calcium mobilization (FLIPR), read-out: M1 Efficacy
[9] = Table 4, 100% efficacy is the maximum response obtained with the Carbachol control
[10] = Table 4, modulating M4 receptor
[11] = Table 4, modulating M1 receptor
[12] = Table 4, M4 receptor, calcium mobilization (FLIPR)
[13] = Table 4, M1 receptor, calcium mobilization (FLIPR)

With `Cc1cc(C(=O)N2CC3(CCN(C4CC5CCC(C4)N5C(=O)OC(C)C)CC3)c3cc(F)ccc32)nn1C` (centres unmarked) [compound 24] the “M4 Activity” value (M4 muscarinic receptor; [1]) was “x (activity was measured to be greater than 1.0 μM)”, the Emax (M4 muscarinic receptor; [2]) was less than 65% and the “M1 Activity” value (M1 muscarinic receptor; [3]) was “xx (activity was measured to be between 0.1 μM and 1.0 μM)”. It also gave an Emax (M1 muscarinic receptor; [4]) of less than 65%.

`CC(=O)N1CC2(CCN(C3CCN(C(=O)O[C@@H]4CCOC4)CC3)CC2)c2cc(F)ccc21` [compound 424] was tested, and the EC50 (M4 muscarinic receptor; [5]) was greater than 1 µM, the Emax (M4 muscarinic receptor; [6]) was less than 65% and the EC50 (M1 muscarinic receptor; [7]) was greater than 1 µM. The Emax (M1 muscarinic receptor; [8]) was less than 65%.

With `COC(=O)N1CCC(N2CCC3(CC2)CN(C(C)=O)c2ccc(F)cc23)C1` (centres unmarked) [compound 771] the Emax (M4 muscarinic receptor; [9]) was less than 25%, the “M4 Activity” value (M4 muscarinic receptor; [10]) was “x (activity was measured to be greater than 5.0 μM)” and the Emax (M1 muscarinic receptor; [9]) was less than 25%. The “M1 Activity” value (M1 muscarinic receptor; [11]) was “x (activity was measured to be greater than 5.0 μM)”.

In the case of `CCOC(=O)N1CCC(N2CCC3(CC2)CN(C(C)=O)c2ccc(-c4ccc(C(N)=O)cc4)cc23)CC1` [compound 406], the EC50 (M4 muscarinic receptor; [5]) is reported as greater than 1 µM, the Emax (M4 muscarinic receptor; [6]) is reported as less than 65% and the EC50 (M1 muscarinic receptor; [7]) is reported as 0.1 to 1 µM. For the same molecule, the Emax (M1 muscarinic receptor; [8]) was less than 65%.

In the case of `CC(=O)N1CC2(CCN(C3CCN(c4cncc(-c5ccccc5F)n4)CC3)CC2)c2ccccc21` [compound 461], the Emax (M4 muscarinic receptor; [9]) is reported as less than 25%, the “M4 Activity” value (M4 muscarinic receptor; [10]) is reported as “x (activity was measured to be greater than 5.0 μM)” and the Emax (M1 muscarinic receptor; [9]) is reported as 25 to 100%. For the same molecule, the “M1 Activity” value (M1 muscarinic receptor; [11]) was “xx (activity was measured to be between 2.0 μM and 5.0 μM)”.

With `CN(C)C(=O)N1CC2(CCN(C3CCN(C(=O)CC#N)CC3)CC2)c2cc(F)ccc21` [compound 729] the Emax (M4 muscarinic receptor; [9]) was less than 25%, the “M4 Activity” value (M4 muscarinic receptor; [10]) was “x (activity was measured to be greater than 5.0 μM)” and the Emax (M1 muscarinic receptor; [9]) was less than 25%. For the same molecule, the “M1 Activity” value (M1 muscarinic receptor; [11]) was “x (activity was measured to be greater than 5.0 μM)”.

For `COC(=O)N1CC2(CCN(C3CC4CCC(C3)N4C(=O)O[C@@H]3CCOC3)CC2)c2cc(F)ccc21` (some centres unmarked) [compound 192], the “M4 Activity” value (M4 muscarinic receptor; [1]) was “x (activity was measured to be greater than 1.0 μM)”, the Emax (M4 muscarinic receptor; [2]) was 65 to 85% and the “M1 Activity” value (M1 muscarinic receptor; [3]) was “xxx (activity was measured to be less than 0.1 μM)”. It also gave an Emax (M1 muscarinic receptor; [4]) of 65 to 85%.

In the case of `CCOC(=O)N1CCC(N2CCC3(CC2)CN(C(=O)c2ccc(F)cc2)c2ccc(F)cc23)CC1` [compound 77], the “M4 Activity” value (M4 muscarinic receptor; [1]) is reported as “xx (activity was measured to be between 0.1 μM and 1.0 μM)”, the Emax (M4 muscarinic receptor; [2]) is reported as less than 65% and the “M1 Activity” value (M1 muscarinic receptor; [3]) is reported as “xxx (activity was measured to be less than 0.1 μM)”. It also gave an Emax (M1 muscarinic receptor; [4]) of 65 to 85%.

In the case of `COC(=O)N1C2CCC1CC(N1CCC3(CC1)CN(C(=O)N(C)C)c1ccc(F)cc13)C2` (centres unmarked) [compound 314], the “M4 Activity” value (M4 muscarinic receptor; [1]) is reported as “x (activity was measured to be greater than 1.0 μM)”, the Emax (M4 muscarinic receptor; [2]) is reported as less than 65% and the “M1 Activity” value (M1 muscarinic receptor; [3]) is reported as “xx (activity was measured to be between 0.1 μM and 1.0 μM)”. It also gave an Emax (M1 muscarinic receptor; [4]) of less than 65%.

For `COc1cccc(-c2cncc(N3CCC(N4CCC5(CC4)CN(C(C)=O)c4ccccc45)CC3)n2)c1` [compound 837], the Emax (M4 muscarinic receptor; [9]) was less than 25%, the “M4 Activity” value (M4 muscarinic receptor; [12]) was “x (activity was measured to be greater than 5.0 μM)” and the Emax (M1 muscarinic receptor; [9]) was less than 25%. For the same molecule, the “M1 Activity” value (M1 muscarinic receptor; [13]) was “x (activity was measured to be greater than 5.0 μM)”.

For `CC(=O)N[C@H]1CC2(CCN(C3CCN(C)CC3)CC2)c2ccccc21` [compound 703], the Emax (M4 muscarinic receptor; [9]) was less than 25%, the “M4 Activity” value (M4 muscarinic receptor; [10]) was “x (activity was measured to be greater than 5.0 μM)” and the Emax (M1 muscarinic receptor; [9]) was less than 25%. For the same molecule, the “M1 Activity” value (M1 muscarinic receptor; [11]) was “x (activity was measured to be greater than 5.0 μM)”.

With `CCOC(=O)N1CCC(N2CCC3(CC2)CN(C(=O)O[C@H]2CCOC2)c2ccc(F)cc23)CC1` [compound 49] the “M4 Activity” value (M4 muscarinic receptor; [1]) was “xxx (activity was measured to be less than 0.1 μM)”, the Emax (M4 muscarinic receptor; [2]) was 65 to 85% and the “M1 Activity” value (M1 muscarinic receptor; [3]) was “xxx (activity was measured to be less than 0.1 μM)”. The Emax (M1 muscarinic receptor; [4]) was greater than 85%.

For `CCOC(=O)N1CCC(N2CCC3(CC2)CN(C(=O)N(C)c2ccccc2)c2ccc(F)cc23)CC1` [compound 169], the “M4 Activity” value (M4 muscarinic receptor; [1]) was “x (activity was measured to be greater than 1.0 μM)”, the Emax (M4 muscarinic receptor; [2]) was greater than 85% and the “M1 Activity” value (M1 muscarinic receptor; [3]) was “xxx (activity was measured to be less than 0.1 μM)”. The Emax (M1 muscarinic receptor; [4]) was 65 to 85%.

For `CCOC(=O)N1CCC(N2CCC3(CC2)CN(C(C)=O)c2c(-c4cccc(C)c4)cccc23)CC1` [compound 907], the Emax (M4 muscarinic receptor; [9]) was less than 25%, the “M4 Activity” value (M4 muscarinic receptor; [12]) was “x (activity was measured to be greater than 5.0 μM)” and the Emax (M1 muscarinic receptor; [9]) was 25 to 100%. For the same molecule, the “M1 Activity” value (M1 muscarinic receptor; [13]) was “x (activity was measured to be greater than 5.0 μM)”.

— patent US7786141B2 (Vertex Pharmaceuticals Incorporated, priority 2004, dated 2010)
